According to patent publication US9187462B2, “Substituted quinazolines as serine/threonine kinase inhibitors” (Array BioPharma Inc., priority 2011, dated 2015):

molecular target: human ERK-2 (Mitogen Activated Kinase 1) (Homo sapiens (Human), UniProt P28482); experiment: ERK-2 Enzymatic Assay; format: biochemical; settings: 5 nM ERK-2 enzyme, 25 μM ATP, Omnia peptide S/T17; single assay or mean of multiple assays; read-out: IC50 (ERK-2 Enzymatic Assay), TABLE I
Protocol: Compounds were tested in an enzymatic assay using human ERK-2 (Mitogen Activated Kinase 1), recombinantly expressed as an N-terminal 6-His fusion protein in E. coli and corresponding to aa 8-360. The substrate used was the fluorescent Omnia peptide S/T17 (Invitrogen of Carlsbad, Calif.; Cat. KNZ1171C). Test compounds were diluted in DMSO in 3-fold serial dilutions at 100× final concentrations. […] The assay was run at ambient temperature in a white 384-well polypropylene plate (Nunc, Inc of Naperville, Ill.; Cat. 267462) collecting data every 50 seconds for approximately 30 minutes on an Envision plate reader (PerkinElmer, Inc. of Waltham, Mass.); Excitation 340 nm/Emission 495 nm. The data collected from each well was fit to a straight line and the resulting rates were used to calculate percent of control. Percent of control was plotted against compound concentration and IC50 values were determined using a four-parameter fit. Representative data is in TABLE I and TABLE II. The reported IC50 may be from a single assay or the mean of multiple assays.

human ERK-2 (Mitogen Activated Kinase 1), sequence (P28482 8-360): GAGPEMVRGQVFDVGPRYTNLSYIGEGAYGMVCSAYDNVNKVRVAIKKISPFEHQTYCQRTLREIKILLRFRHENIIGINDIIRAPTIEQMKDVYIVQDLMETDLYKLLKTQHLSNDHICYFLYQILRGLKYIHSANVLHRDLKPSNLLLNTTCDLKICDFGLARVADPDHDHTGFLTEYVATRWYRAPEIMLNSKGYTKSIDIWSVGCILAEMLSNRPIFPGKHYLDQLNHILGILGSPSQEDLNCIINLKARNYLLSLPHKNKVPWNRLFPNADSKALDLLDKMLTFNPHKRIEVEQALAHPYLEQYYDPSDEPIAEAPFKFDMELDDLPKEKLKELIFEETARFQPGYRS

SMILES | IC50
CC(C)Nc1ncc2ccc(C(=O)N[C@H](c3ccc(C(F)(F)F)c(F)c3)[C@@H]3CCCN3)cc2n1 (stereo in doubt) [I-5, 2-isopropylamino-quinazoline-7-carboxylic acid [(S)-(3-fluoro-4-trifluoromethyl-phenyl)-(R)-pyrrolidin-2-yl-methyl]-amide] | 2.3 nM
C[C@@H](CO)Nc1ncc2ccc(C(=O)NC(c3ccc(Cl)c(F)c3)c3ccn(C)n3)cc2n1 (stereo partly drawn) [I-6, N-((4-chloro-3-fluorophenyl)(1-methyl-1H-pyrazol-3-yl)methyl)-2-((S)-1-hydroxypropan-2-ylamino)quinazoline-7-carboxamide] | 5 nM

Now from value to compound:

IC50 | SMILES
1.8 nM | O=C(N[C@H](c1ccc(C(F)(F)F)c(F)c1)[C@@H]1CCCN1)c1ccc2cnc(NC3CCOCC3)nc2c1 (stereo in doubt) [I-7, 2-(tetrahydropyran-4-ylamino)-quinazoline-7-carboxylic acid [(S)-(3-fluoro-4-trifluoromethyl-phenyl)-(R)-pyrrolidin-2-yl-methyl]-amide]
2.3 nM | O=C(N[C@H](c1ccc(Cl)c(F)c1)[C@@H]1CCCN1)c1ccc2cnc(NC3CCOCC3)nc2c1 (stereo in doubt) [I-23, 2-(tetrahydropyran-4-ylamino)-quinazoline-7-carboxylic acid [(S)-(4-chloro-3-fluoro-phenyl)-(R)-pyrrolidin-2-yl-methyl]-amide]
8.2 nM | COc1ccc([C@@H](NC(=O)c2ccc3cnc(NC4CCOCC4)nc3c2)[C@@H]2CCCN2)cc1F (stereo in doubt) [I-24, 2-(tetrahydropyran-4-ylamino)-quinazoline-7-carboxylic acid [(S)-(3-fluoro-4-methoxy-phenyl)-(R)-pyrrolidin-2-yl-methyl]-amide]
9 nM | COc1ccc([C@@H](NC(=O)c2cc(F)c3cnc(NC4CCOCC4)nc3c2)[C@@H]2CCCN2)cc1F (stereo in doubt) [I-25, 5-fluoro-2-(tetrahydropyran-4-ylamino)-quinazoline-7-carboxylic acid [(S)-(3-fluoro-4-methoxy-phenyl)-(R)-pyrrolidin-2-yl-methyl]-amide]
2.4 nM | CCn1ccc([C@@H](NC(=O)c2ccc3cnc(NC4CCOCC4)nc3c2)c2ccc(Cl)c(F)c2)n1 [I-19, 2-(tetrahydropyran-4-ylamino)-quinazoline-7-carboxylic acid [(S)-(4-chloro-3-fluoro-phenyl)-(1-ethyl-1H-pyrazol-3-yl)-methyl]-amide]

same assay, conditions: 5 nM ERK-2 enzyme, 25 μM ATP, Omnia peptide S/T17; single assay or mean of multiple assays; read-out: IC50 (ERK-2 Enzymatic Assay), TABLE II

SMILES | IC50
COc1ccc([C@H](NC(=O)c2cc(F)c3cnc(NC(C)C(F)(F)F)nc3c2)c2cnn(C)c2)cc1F (single isomer, unassigned) [II-1] | 6.2 nM
COc1ccc([C@H](NC(=O)c2cc(F)c3cnc(NC(C)C(F)(F)F)nc3c2)c2cnn(C)c2)cc1F (single isomer, unassigned) [II-2] | 13.6 nM
